Reference: publication PMC8812461, “Synthesis of New 3-Arylcoumarins Bearing N-Benzyl Triazole Moiety: Dual Lipoxygenase and Butyrylcholinesterase Inhibitors With Anti-Amyloid Aggregation and Neuroprotective Properties Against Alzheimer’s Disease” (Frontiers in Chemistry, 2022)

Assays:
[1] = target: T1, 15-LOX (soybean lipoxygenase) (Glycine max, UniProt P08170); assay: Soybean 15-LOX inhibition assay; type: biochemical
T1 construct: purchased Merck or Aldrich
T1 sequence (P08170 1-839): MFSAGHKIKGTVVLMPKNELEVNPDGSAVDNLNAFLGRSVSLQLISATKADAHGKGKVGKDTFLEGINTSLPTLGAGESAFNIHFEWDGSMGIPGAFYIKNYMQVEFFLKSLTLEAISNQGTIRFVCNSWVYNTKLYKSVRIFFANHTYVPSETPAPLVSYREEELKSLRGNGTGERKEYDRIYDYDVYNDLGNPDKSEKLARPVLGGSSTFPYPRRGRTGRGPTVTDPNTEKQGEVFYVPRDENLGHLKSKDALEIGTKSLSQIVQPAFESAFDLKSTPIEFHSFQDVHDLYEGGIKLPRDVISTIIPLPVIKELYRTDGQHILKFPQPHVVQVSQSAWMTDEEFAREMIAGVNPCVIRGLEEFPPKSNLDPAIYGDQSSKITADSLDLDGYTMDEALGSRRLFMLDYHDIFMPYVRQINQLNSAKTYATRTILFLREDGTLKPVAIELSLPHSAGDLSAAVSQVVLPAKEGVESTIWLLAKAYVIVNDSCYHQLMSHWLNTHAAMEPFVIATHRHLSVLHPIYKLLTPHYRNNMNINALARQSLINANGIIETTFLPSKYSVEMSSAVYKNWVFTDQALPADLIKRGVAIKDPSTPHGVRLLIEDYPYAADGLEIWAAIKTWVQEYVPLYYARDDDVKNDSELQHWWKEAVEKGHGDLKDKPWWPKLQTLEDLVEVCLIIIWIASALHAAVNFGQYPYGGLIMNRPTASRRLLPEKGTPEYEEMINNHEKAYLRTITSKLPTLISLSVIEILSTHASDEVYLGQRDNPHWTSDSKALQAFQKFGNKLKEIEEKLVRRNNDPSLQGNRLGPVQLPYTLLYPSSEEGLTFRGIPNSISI
Method: A solution of the target compound was prepared in DMSO, and it was diluted with phosphate buffer (0.1 M, pH = 8.0).

[2] = target: T2, BuChE (from equine serum) (Equus caballus, UniProt P81908); assay: biochemical; type: biochemical; settings: mean ± SEM of three experiments, read-out: eq BuChE IC50
T2 construct: BuChE from equine serum was employed for Ellman’s assay; purchased Merck or Aldrich; host or cells: equine serum
Method: (§1) AChE from electrophorus electricus and BuChE from equine serum was employed for Ellman’s assay. Each compound (5.0 mg) was dissolved in 1.0 ml of DMSO. […] Briefly, a mixture of phosphate buffer (2.0 ml, 0.1 M, pH = 8.0), 60.0 µl of DTNB solution, and 20.0 µl of AChE/BuChE was prepared, and 30.0 µl of the test compounds in different concentrations were then added to the mixture. Next, a solution of the substrate (acetylthiocholine iodide/butyrylthiocholine iodide, 20.0 µl) was added to the mixture after 10 min incubation at 25°C. All experiments were performed in triplicates, and the temperature of all solutions was controlled to be maintained at 25°C. […] The blank solution was used to validate the non-enzymatic hydrolysis of the substrate during the assessment. The blank solution was prepared by a mixture of 2.0 ml of buffer, 30.0 μl of DMSO, 60.0 μl of DTNB, and 20.0 μl of substrate. The rate of the enzymatic hydrolysis of the substrate was calculated, and % inhibition of the compounds was determined. The half maximal inhibitory concentration (IC50) values were graphically determined from inhibition curves (logarithm of the concentration of the tested compound versus percent of the inhibition).

[3] = target: T3, AChE (from electrophorus electricus) (Electrophorus electricus, UniProt O42275); assay: Cholinesterase inhibition assay (Ellman's method), AChE; type: biochemical; settings: test concentration not given
T3 construct: purchased Merck or Aldrich
Method: as §1

in vitro = type: cell-based; settings: rat, PC12 cells, MTT, read-out: PC12 viability percent (cytotoxicity)
Method: The cytotoxic effect of the selected compounds (8l and 8n) on the PC12 cell line was evaluated by using the MTT-based colorimetric assay. First, the PC12 cell line was cultivated in DMEM culture medium, supplemented with fetal bovine serum (10%). […]. Thereafter, the culture medium of each well was replaced by 20 µl MTT solution (5.0 mg/ml) and incubated to form formazan crystals, followed by dissolving them in DMSO (100.0 µl) and recording the related absorbance at 570 nm using a Synergy 2 multimode plate reader (Biotek, Winooski, VT, United States). The viability percent was then calculated according to the control well, where no compound was added to the related well. The mentioned protocol was repeated in triplicates, and the mean ± SEM of the obtained results was reported.

Aβ1-42 = target: T4, Aβ1-42 (Homo sapiens, UniProt P05067); assay: Self-induced Aβ1-42 aggregation (ThT assay); type: biochemical; settings: for Self-induced Aβ aggregation inhibition relative to donepezil: 100.0 μM, versus donepezil; for Inhibition of self-induced Aβ1-42 aggregation: Aβ1-42 10.0 μM, compound 100.0 μM, ThT
T4 construct: was used to dissolve amyloid β1-40 (Sigma A1075); purchased Sigma A1075

[4] = target: T5, Aβ1-42 in the presence of AChE (Homo sapiens, UniProt P05067); assay: AChE-induced Aβ1-42 aggregation (ThT assay); type: biochemical; settings: compound 100.0 μM, AChE 0.01 u/ml
T5 construct: was used to dissolve amyloid β1-40 (Sigma A1075); purchased Sigma (Aβ); Merck or Aldrich (AChE) A1075 (Aβ)

BV-2 cells = assay: Hydrogen peroxide cell-based assay (extracellular H2O2, amyloid β-induced); set-up: species or system murine; settings: 10.0 μM compound 3 h before amyloid β1-40 (5.0 μM), 24 h
Method: The BV-2 immortalized murine microglial cell line was cultured in a high-glucose Dulbecco’s modified Eagle medium (DMEM) without phenol red supplemented with 10% of FBS, %1 of L -glutamine, and 1% of penicillin–streptomycin solution. The cells were kept in a moistened atmosphere at 37°C. Quantitation of the extracellular H2O2 produced by the BV-2 cells was detected using the Oxiselect Sta-343 hydrogen peroxide assay according to the kit’s protocol. Briefly, the cells were seeded in a 384-well plate (1,000 cells/well) overnight in 50.0 μl/well of serum and phenol red free culture medium, then treated with 10.0 μM of the compounds for 3 h, prior to amyloid β1-40 treatment (5.0 μM) and incubated for 24 h. An amount of 25.0 μl of medium was collected and mixed with 250.0 μl aqueous working solution. The absorbance values at 595 nm of each well were measured using a BMG Labtech Omega FLUOstar microplate reader. BHT (butylated hydroxytoluene, Cell biolabs) was also tested as a reference antioxidant agent ([Datki et al., 2003]).

BuChE = target: T6, BuChE (Equus caballus, UniProt P81908); assay: Kinetic study of BuChE inhibition (Lineweaver–Burk); type: biochemical; settings: secondary plot; inhibitor 0, 10.0, 20.0, 40.0 µM; read-out: Inhibitory constant (Ki) for BuChE
T6 construct: BuChE from equine serum was employed for Ellman’s assay; purchased Merck or Aldrich; host or cells: equine serum
Method: Kinetics of the BuChE inhibition activity was studied for compound 8l at different inhibitor concentrations (0, 10.0, 20.0, and 40.0 µM) as mentioned in the ChE inhibition assay section. Different concentrations of the substrate (S) and butyrylthiocholine iodide (BuChI) were applied to obtain the initial velocity measurements, in each case. The reciprocal of the S (1/S) was plotted against the initial velocity (1/v) ([Rampa et al., 2000]). […] […]. Ellman’s method was utilized to assess anti-AChE/BuChE activity of the synthesized compounds ([Ellman et al., 1961]). AChE from electrophorus electricus and BuChE from equine serum was employed for Ellman’s assay. Each compound (5.0 mg) was dissolved in 1.0 ml of DMSO. […] Briefly, a mixture of phosphate buffer (2.0 ml, 0.1 M, pH = 8.0), 60.0 µl of DTNB solution, and 20.0 µl of AChE/BuChE was prepared, and 30.0 µl of the test compounds in different concentrations were then added to the mixture. […] The change in the absorbance wavelength of 412 nm was recorded for 1 min. […] The rate of the enzymatic hydrolysis of the substrate was calculated, and % inhibition of the compounds was determined. The half maximal inhibitory concentration (IC50) values were graphically determined from inhibition curves (logarithm of the concentration of the tested compound versus percent of the inhibition).

T4 sequence (P05067 672-711): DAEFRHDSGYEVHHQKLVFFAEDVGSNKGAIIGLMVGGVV
T2 sequence (P81908 whole entry): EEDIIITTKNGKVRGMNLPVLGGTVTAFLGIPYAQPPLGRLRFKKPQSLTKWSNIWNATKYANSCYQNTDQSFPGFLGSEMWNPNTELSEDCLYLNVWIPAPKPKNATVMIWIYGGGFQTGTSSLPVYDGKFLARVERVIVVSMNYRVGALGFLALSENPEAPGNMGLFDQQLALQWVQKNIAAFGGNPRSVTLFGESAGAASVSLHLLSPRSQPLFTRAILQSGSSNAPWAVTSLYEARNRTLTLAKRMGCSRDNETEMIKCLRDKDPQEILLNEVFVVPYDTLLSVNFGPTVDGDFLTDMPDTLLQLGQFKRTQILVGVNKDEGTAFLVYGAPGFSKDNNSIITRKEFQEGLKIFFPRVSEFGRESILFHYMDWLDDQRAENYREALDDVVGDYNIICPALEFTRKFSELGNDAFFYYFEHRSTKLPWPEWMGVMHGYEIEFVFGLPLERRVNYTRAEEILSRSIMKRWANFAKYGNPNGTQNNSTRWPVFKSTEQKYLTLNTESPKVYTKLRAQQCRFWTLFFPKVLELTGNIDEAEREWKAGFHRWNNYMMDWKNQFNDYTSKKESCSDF
T3 sequence (O42275 24-633): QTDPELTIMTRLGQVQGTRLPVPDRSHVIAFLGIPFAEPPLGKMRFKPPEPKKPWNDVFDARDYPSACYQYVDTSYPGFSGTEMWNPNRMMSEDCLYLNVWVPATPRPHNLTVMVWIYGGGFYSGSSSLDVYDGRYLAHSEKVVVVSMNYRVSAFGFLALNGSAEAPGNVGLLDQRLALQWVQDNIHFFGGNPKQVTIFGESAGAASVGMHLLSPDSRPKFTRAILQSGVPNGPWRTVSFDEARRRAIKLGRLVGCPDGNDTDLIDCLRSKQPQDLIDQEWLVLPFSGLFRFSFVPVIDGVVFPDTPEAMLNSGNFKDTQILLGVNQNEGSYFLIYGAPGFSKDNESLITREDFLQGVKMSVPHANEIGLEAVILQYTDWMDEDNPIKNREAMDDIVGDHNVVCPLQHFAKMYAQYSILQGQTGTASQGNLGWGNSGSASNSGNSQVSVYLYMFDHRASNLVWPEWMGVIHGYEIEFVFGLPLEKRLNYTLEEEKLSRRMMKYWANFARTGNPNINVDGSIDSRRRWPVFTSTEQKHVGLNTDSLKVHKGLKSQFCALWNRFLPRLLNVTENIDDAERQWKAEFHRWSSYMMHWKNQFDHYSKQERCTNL
T5 sequence (P05067 672-711): as the sequence (P05067 672-711) above
T6 sequence (P81908 whole entry): as the sequence (P81908 whole entry) above

SMILES | IC50 [1] | IC50 [2] | ee AChE %inhib. [3] | viability at 24 h, 50 µM (in vitro) | Self-induced Aβ aggregation inhibition relative to donepezil (Aβ1-42) | Inhibition of self-induced Aβ1-42 aggregation (Aβ1-42) | inhibition at 100 µM [4] | H2O2 level of BV-2 cells (% ± SEM of control) (BV-2 cells) | Ki (BuChE)
COc1cccc(Cn2cc(COc3ccc(-c4cc5ccccc5oc4=O)cc3)nn2)c1 [8l, 3-(4-((1-(3-Methoxybenzyl)-1H-1,2,3-triazol-4-yl)methoxy)phenyl)-2H-chromen-2-one] | 39.1 ± 1.1 µM | 19.5 ± 0.9 µM | 16.5% | 96.5 ± 0.9% | 1.44 times | 61.3 ± 4.8% | 36.2 ± 6.1% | 97.6 ± 6.1 % of control | 14.1 µM
COc1cccc2cc(-c3ccc(OCc4cn(Cc5ccccc5)nn4)cc3)c(=O)oc12 [8n, 3-(4-((1-Benzyl-1H-1,2,3-triazol-4-yl)methoxy)phenyl)-8-methoxy-2H-chromen-2-one] | 42.5 ± 1.7 µM | 45.1 ± 1.3 µM | 49.9% | 95.2 ± 1.1% | 1.79 times | 76.2 ± 6.4% | 25.1 ± 8.7% | 122.4 ± 8.3 % of control | –
Cc1cc(C(C)(C)C)c(O)c(C(C)(C)C)c1 [BHT, butylated hydroxytoluene, reference compound] | – | – | – | – | – | – | – | 114.4 ± 8.5 % of control | –
